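Dose response: 5 concentrations. Exposure: 48 h. Format: 96-well plates. Endpoint: linear interpolation; highest concentration if not reached. Here, GI50 denotes the concentration required for 50% inhibition of growth. TGI: total growth inhibition.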
Assays:
Experiment in all cases: inhibition of tumour cell growth, NCI panel, 48 h
MOLT-4 leukemia = tested on: MOLT-4 leukemia
K-562 leukemia = tested on: K-562 leukemia
SN12C renal = tested on: SN12C renal
HCT-15 colon = tested on: HCT-15 colon
SK-MEL-2 melanoma = tested on: SK-MEL-2 melanoma
HOP-62 NSCLC = tested on: HOP-62 NSCLC
MDA-MB-435 = tested on: MDA-MB-435
HCC-2998 colon = tested on: HCC-2998 colon
NCI-H522 lung = tested on: NCI-H522 lung
UO-31 renal = tested on: UO-31 renal
DU-145 prostate = tested on: DU-145 prostate
IGROV1 ovarian = tested on: IGROV1 ovarian
SF-268 CNS = tested on: SF-268 CNS
A498 renal = tested on: A498 renal
LOX IMVI melanoma = tested on: LOX IMVI melanoma
OVCAR-5 ovarian = tested on: OVCAR-5 ovarian
SF-295 CNS = tested on: SF-295 CNS
A549 NSCLC = tested on: A549 NSCLC
MALME-3M melanoma = tested on: MALME-3M melanoma
NCI-H226 lung = tested on: NCI-H226 lung
RPMI-8226 leukemia = tested on: RPMI-8226 leukemia
HOP-92 NSCLC = tested on: HOP-92 NSCLC
SK-MEL-28 melanoma = tested on: SK-MEL-28 melanoma
SF-539 CNS = tested on: SF-539 CNS
SNB-75 CNS = tested on: SNB-75 CNS
SNB-19 CNS = tested on: SNB-19 CNS
MDA-MB-468 breast = tested on: MDA-MB-468 breast
M14 melanoma = tested on: M14 melanoma
NCI-H460 lung = tested on: NCI-H460 lung
EKVX NSCLC = tested on: EKVX NSCLC
OVCAR-8 ovarian = tested on: OVCAR-8 ovarian
PC-3 prostate = tested on: PC-3 prostate
CAKI-1 renal = tested on: CAKI-1 renal
COLO 205 colon = tested on: COLO 205 colon
HS 578T breast = tested on: HS 578T breast
SK-MEL-5 melanoma = tested on: SK-MEL-5 melanoma
TK-10 renal = tested on: TK-10 renal
T-47D breast = tested on: T-47D breast
786-0 renal = tested on: 786-0 renal
CCRF-CEM leukemia = tested on: CCRF-CEM leukemia
SR leukemia = tested on: SR leukemia
NCI/ADR-RES ovarian = tested on: NCI/ADR-RES ovarian
OVCAR-4 ovarian = tested on: OVCAR-4 ovarian
MDA-MB-231 breast = tested on: MDA-MB-231 breast
KM12 colon = tested on: KM12 colon
SW-620 colon = tested on: SW-620 colon
UACC-62 melanoma = tested on: UACC-62 melanoma
OVCAR-3 ovarian = tested on: OVCAR-3 ovarian
SK-OV-3 ovarian = tested on: SK-OV-3 ovarian
MCF7 breast = tested on: MCF7 breast
UACC-257 melanoma = tested on: UACC-257 melanoma
NCI-H23 lung = tested on: NCI-H23 lung
HL-60(TB) leukemia = tested on: HL-60(TB) leukemia
HCT-116 colon = tested on: HCT-116 colon
ACHN renal = tested on: ACHN renal
U251 CNS = tested on: U251 CNS
HT29 colon = tested on: HT29 colon
BT-549 breast = tested on: BT-549 breast

Compound: Cc1cc2nc3c4ccccc4n(CC4=NCCN4)c3nc2cc1C
- GI50 (MOLT-4 leukemia): 1.17 µM
- TGI (MOLT-4 leukemia): 6.54 µM
- GI50 (K-562 leukemia): 1.78 µM
- TGI (K-562 leukemia): > 100 µM
- GI50 (SN12C renal): 1.59 µM
- TGI (SN12C renal): 12.2 µM
- GI50 (HCT-15 colon): 3.44 µM
- TGI (HCT-15 colon): 15.5 µM
- GI50 (SK-MEL-2 melanoma): 15.9 µM
- TGI (SK-MEL-2 melanoma): 30.5 µM
- GI50 (HOP-62 NSCLC): 2.34 µM
- TGI (HOP-62 NSCLC): 11.8 µM
- GI50 (MDA-MB-435): 3.67 µM
- TGI (MDA-MB-435): 14.3 µM
- GI50 (HCC-2998 colon): 2.69 µM
- TGI (HCC-2998 colon): 15.7 µM
- GI50 (NCI-H522 lung): 1.86 µM
- TGI (NCI-H522 lung): 15.1 µM
- GI50 (UO-31 renal): 0.605 µM
- TGI (UO-31 renal): 6.49 µM
- GI50 (DU-145 prostate): 3.08 µM
- TGI (DU-145 prostate): 14.4 µM
- GI50 (IGROV1 ovarian): 1.99 µM
- TGI (IGROV1 ovarian): 15.4 µM
- GI50 (SF-268 CNS): 4.81 µM
- TGI (SF-268 CNS): 24 µM
- GI50 (A498 renal): 6.15 µM
- TGI (A498 renal): 20.9 µM
- GI50 (LOX IMVI melanoma): 1.19 µM
- TGI (LOX IMVI melanoma): 2.47 µM
- GI50 (OVCAR-5 ovarian): 2.62 µM
- TGI (OVCAR-5 ovarian): 10.6 µM
- GI50 (SF-295 CNS): 1.12 µM
- TGI (SF-295 CNS): 10.7 µM
- GI50 (A549 NSCLC): 1.28 µM
- TGI (A549 NSCLC): 16.6 µM
- GI50 (MALME-3M melanoma): 1.4 µM
- TGI (MALME-3M melanoma): 2.85 µM
- GI50 (NCI-H226 lung): 1.44 µM
- TGI (NCI-H226 lung): 5 µM
- GI50 (RPMI-8226 leukemia): 2.55 µM
- TGI (RPMI-8226 leukemia): 36 µM
- GI50 (HOP-92 NSCLC): 2.84 µM
- TGI (HOP-92 NSCLC): 17.5 µM
- GI50 (SK-MEL-28 melanoma): 7.93 µM
- TGI (SK-MEL-28 melanoma): 20.6 µM
- GI50 (SF-539 CNS): 1.59 µM
- TGI (SF-539 CNS): 3.06 µM
- GI50 (SNB-75 CNS): 1.49 µM
- TGI (SNB-75 CNS): 10.7 µM
- GI50 (SNB-19 CNS): 3.21 µM
- TGI (SNB-19 CNS): 15.9 µM
- GI50 (MDA-MB-468 breast): 2.06 µM
- TGI (MDA-MB-468 breast): 7.09 µM
- GI50 (M14 melanoma): 3.1 µM
- TGI (M14 melanoma): 14.1 µM
- GI50 (NCI-H460 lung): 0.634 µM
- TGI (NCI-H460 lung): 1.93 µM
- GI50 (EKVX NSCLC): 10.3 µM
- TGI (EKVX NSCLC): 22.5 µM
- GI50 (OVCAR-8 ovarian): 2.53 µM
- TGI (OVCAR-8 ovarian): 19.3 µM
- GI50 (PC-3 prostate): 1.75 µM
- TGI (PC-3 prostate): > 100 µM
- GI50 (CAKI-1 renal): 1.38 µM
- TGI (CAKI-1 renal): 11.7 µM
- GI50 (COLO 205 colon): 3.11 µM
- TGI (COLO 205 colon): 20.2 µM
- GI50 (HS 578T breast): 11.2 µM
- TGI (HS 578T breast): 29.7 µM
- GI50 (SK-MEL-5 melanoma): 6.62 µM
- TGI (SK-MEL-5 melanoma): 19.2 µM
- GI50 (TK-10 renal): 6.35 µM
- TGI (TK-10 renal): 20.7 µM
- GI50 (T-47D breast): 3.07 µM
- TGI (T-47D breast): 15.5 µM
- GI50 (786-0 renal): 3.48 µM
- TGI (786-0 renal): 13.3 µM
- GI50 (CCRF-CEM leukemia): 2.37 µM
- TGI (CCRF-CEM leukemia): 42.2 µM
- GI50 (SR leukemia): 0.523 µM
- TGI (SR leukemia): 9.37 µM
- GI50 (NCI/ADR-RES ovarian): 3.5 µM
- TGI (NCI/ADR-RES ovarian): 17.8 µM
- GI50 (OVCAR-4 ovarian): 5.76 µM
- TGI (OVCAR-4 ovarian): 20.8 µM
- GI50 (MDA-MB-231 breast): 2.01 µM
- TGI (MDA-MB-231 breast): 5.72 µM
- GI50 (KM12 colon): 5.51 µM
- TGI (KM12 colon): 22.6 µM
- GI50 (SW-620 colon): 0.997 µM
- TGI (SW-620 colon): 11.9 µM
- GI50 (UACC-62 melanoma): 1.91 µM
- TGI (UACC-62 melanoma): 11.8 µM
- GI50 (OVCAR-3 ovarian): 5.89 µM
- TGI (OVCAR-3 ovarian): 22.6 µM
- GI50 (SK-OV-3 ovarian): 2.43 µM
- TGI (SK-OV-3 ovarian): 9.95 µM
- GI50 (MCF7 breast): 0.747 µM
- TGI (MCF7 breast): 12.5 µM
- GI50 (UACC-257 melanoma): 10.6 µM
- TGI (UACC-257 melanoma): 25.3 µM
- GI50 (NCI-H23 lung): 2.64 µM
- TGI (NCI-H23 lung): 13.1 µM
- GI50 (HL-60(TB) leukemia): 3.06 µM
- TGI (HL-60(TB) leukemia): 14.4 µM
- GI50 (HCT-116 colon): 1.5 µM
- TGI (HCT-116 colon): 6.19 µM
- GI50 (ACHN renal): 1.74 µM
- TGI (ACHN renal): 5.3 µM
- GI50 (U251 CNS): 1.25 µM
- TGI (U251 CNS): 4.21 µM
- GI50 (HT29 colon): 1.52 µM
- TGI (HT29 colon): 3.6 µM
- GI50 (BT-549 breast): 6.52 µM
- TGI (BT-549 breast): 22.7 µM

Source: PubChem BioAssay (NCI)
